From the NIST ThermoML archive (doi:10.1021/acs.jced.8b00975)
± gives the expanded uncertainty stated by the source.

Assay: xn = mol fraction of the nth substance listed
Settings: Liquid, Vibrating tube method

C=C(C)C(=O)OCCN(C)C [2-(dimethylamino)ethyl methylpropenoate] + CCCCCO
mass density [kg/m3]
Settings | 100 kPa | 5000 kPa | 10000 kPa | 15000 kPa | 20000 kPa | 25000 kPa | 30000 kPa | 35000 kPa
293.15 K, x1 = 0.0299 | 821.4 ± 0.62 | 824.97 ± 0.64 | 828.31 ± 0.66 | 831.49 ± 0.68 | 834.52 ± 0.7 | 837.46 ± 0.72 | 840.35 ± 0.73 | 843.21 ± 0.75
293.15 K, x1 = 0.0601 | 827.36 ± 0.62 | 830.88 ± 0.63 | 834.21 ± 0.65 | 837.36 ± 0.67 | 840.4 ± 0.69 | 843.36 ± 0.71 | 846.28 ± 0.73 | 849.21 ± 0.75
293.15 K, x1 = 0.1006 | 834.83 ± 0.61 | 838.39 ± 0.63 | 841.73 ± 0.65 | 844.91 ± 0.67 | 847.96 ± 0.68 | 850.92 ± 0.7 | 853.82 ± 0.72 | 856.7 ± 0.73
293.15 K, x1 = 0.2011 | 851.81 ± 0.61 | 855.36 ± 0.62 | 858.7 ± 0.64 | 861.88 ± 0.65 | 864.94 ± 0.67 | 867.91 ± 0.68 | 870.84 ± 0.69 | 873.77 ± 0.71
293.15 K, x1 = 0.3004 | 866.6 ± 0.6 | 870.17 ± 0.61 | 873.54 ± 0.62 | 876.75 ± 0.64 | 879.84 ± 0.65 | 882.84 ± 0.66 | 885.78 ± 0.67 | 888.7 ± 0.69
293.15 K, x1 = 0.402 | 879.66 ± 0.59 | 883.27 ± 0.6 | 886.67 ± 0.61 | 889.9 ± 0.62 | 893.01 ± 0.63 | 896.03 ± 0.64 | 899.02 ± 0.65 | 902 ± 0.66
293.15 K, x1 = 0.4518 | 885.55 ± 0.59 | 889.17 ± 0.6 | 892.6 ± 0.61 | 895.88 ± 0.62 | 899.03 ± 0.63 | 902.08 ± 0.64 | 905.07 ± 0.65 | 908.03 ± 0.65
293.15 K, x1 = 0.5004 | 890.97 ± 0.58 | 894.63 ± 0.59 | 898.09 ± 0.6 | 901.38 ± 0.61 | 904.54 ± 0.62 | 907.61 ± 0.63 | 910.63 ± 0.64 | 913.62 ± 0.64
293.15 K, x1 = 0.5486 | 896.13 ± 0.58 | 899.78 ± 0.59 | 903.24 ± 0.6 | 906.53 ± 0.6 | 909.71 ± 0.61 | 912.79 ± 0.62 | 915.83 ± 0.63 | 918.85 ± 0.63
293.15 K, x1 = 0.601 | 901.42 ± 0.57 | 905.08 ± 0.58 | 908.55 ± 0.59 | 911.86 ± 0.6 | 915.05 ± 0.6 | 918.14 ± 0.61 | 921.18 ± 0.62 | 924.2 ± 0.62
293.15 K, x1 = 0.7021 | 910.74 ± 0.56 | 914.43 ± 0.57 | 917.91 ± 0.58 | 921.22 ± 0.58 | 924.41 ± 0.59 | 927.53 ± 0.6 | 930.63 ± 0.6 | 933.76 ± 0.61
293.15 K, x1 = 0.8019 | 918.94 ± 0.56 | 922.6 ± 0.56 | 926.1 ± 0.57 | 929.46 ± 0.57 | 932.72 ± 0.58 | 935.91 ± 0.58 | 939.06 ± 0.59 | 942.19 ± 0.59
293.15 K, x1 = 0.9008 | 926.27 ± 0.55 | 929.96 ± 0.55 | 933.48 ± 0.56 | 936.87 ± 0.56 | 940.15 ± 0.57 | 943.35 ± 0.57 | 946.5 ± 0.57 | 949.63 ± 0.58
293.15 K, x1 = 0.9306 | 928.32 ± 0.55 | 932.04 ± 0.55 | 935.56 ± 0.56 | 938.93 ± 0.56 | 942.19 ± 0.56 | 945.38 ± 0.57 | 948.54 ± 0.57 | 951.72 ± 0.57
293.15 K, x1 = 0.9645 | 930.63 ± 0.54 | 934.34 ± 0.55 | 937.87 ± 0.55 | 941.25 ± 0.56 | 944.51 ± 0.56 | 947.7 ± 0.56 | 950.84 ± 0.57 | 953.97 ± 0.57
303.15 K, x1 = 0.0307 | 814.24 ± 0.62 | 818.14 ± 0.64 | 821.74 ± 0.66 | 825.07 ± 0.68 | 828.2 ± 0.7 | 831.19 ± 0.72 | 834.07 ± 0.74 | 836.92 ± 0.76
303.15 K, x1 = 0.0604 | 819.89 ± 0.61 | 823.73 ± 0.63 | 827.29 ± 0.65 | 830.63 ± 0.67 | 833.79 ± 0.69 | 836.81 ± 0.71 | 839.72 ± 0.73 | 842.58 ± 0.75
303.15 K, x1 = 0.1009 | 827.11 ± 0.61 | 830.9 ± 0.63 | 834.46 ± 0.65 | 837.81 ± 0.67 | 841.01 ± 0.68 | 844.07 ± 0.7 | 847.03 ± 0.72 | 849.93 ± 0.74
303.15 K, x1 = 0.2025 | 843.87 ± 0.6 | 847.62 ± 0.62 | 851.18 ± 0.64 | 854.56 ± 0.65 | 857.79 ± 0.67 | 860.91 ± 0.68 | 863.93 ± 0.7 | 866.88 ± 0.71
303.15 K, x1 = 0.3 | 857.94 ± 0.6 | 861.71 ± 0.61 | 865.28 ± 0.62 | 868.68 ± 0.64 | 871.95 ± 0.65 | 875.13 ± 0.67 | 878.24 ± 0.68 | 881.32 ± 0.69
303.15 K, x1 = 0.3999 | 870.67 ± 0.59 | 874.45 ± 0.6 | 878.06 ± 0.61 | 881.52 ± 0.63 | 884.85 ± 0.64 | 888.08 ± 0.65 | 891.24 ± 0.66 | 894.35 ± 0.67
303.15 K, x1 = 0.4506 | 876.6 ± 0.59 | 880.36 ± 0.6 | 883.98 ± 0.61 | 887.47 ± 0.62 | 890.84 ± 0.63 | 894.11 ± 0.64 | 897.3 ± 0.65 | 900.41 ± 0.66
303.15 K, x1 = 0.5037 | 882.4 ± 0.58 | 886.19 ± 0.59 | 889.83 ± 0.6 | 893.35 ± 0.61 | 896.76 ± 0.62 | 900.07 ± 0.63 | 903.29 ± 0.64 | 906.44 ± 0.65
303.15 K, x1 = 0.5495 | 887.14 ± 0.58 | 890.94 ± 0.59 | 894.58 ± 0.6 | 898.1 ± 0.61 | 901.5 ± 0.61 | 904.82 ± 0.62 | 908.07 ± 0.63 | 911.28 ± 0.64
303.15 K, x1 = 0.6012 | 892.24 ± 0.57 | 896.07 ± 0.58 | 899.73 ± 0.59 | 903.25 ± 0.6 | 906.65 ± 0.61 | 909.98 ± 0.61 | 913.25 ± 0.62 | 916.5 ± 0.63
303.15 K, x1 = 0.7014 | 901.28 ± 0.56 | 905.16 ± 0.57 | 908.86 ± 0.58 | 912.4 ± 0.59 | 915.83 ± 0.59 | 919.2 ± 0.6 | 922.54 ± 0.61 | 925.89 ± 0.61
303.15 K, x1 = 0.8023 | 909.34 ± 0.56 | 913.19 ± 0.56 | 916.92 ± 0.57 | 920.53 ± 0.58 | 924.05 ± 0.58 | 927.5 ± 0.59 | 930.88 ± 0.59 | 934.23 ± 0.6
303.15 K, x1 = 0.9025 | 916.57 ± 0.55 | 920.44 ± 0.55 | 924.19 ± 0.56 | 927.82 ± 0.57 | 931.37 ± 0.57 | 934.86 ± 0.57 | 938.3 ± 0.58 | 941.71 ± 0.58
303.15 K, x1 = 0.9307 | 918.44 ± 0.55 | 922.34 ± 0.55 | 926.12 ± 0.56 | 929.8 ± 0.56 | 933.38 ± 0.57 | 936.89 ± 0.57 | 940.33 ± 0.58 | 943.73 ± 0.58
303.15 K, x1 = 0.9625 | 920.67 ± 0.54 | 924.56 ± 0.55 | 928.32 ± 0.56 | 931.98 ± 0.56 | 935.55 ± 0.56 | 939.05 ± 0.57 | 942.5 ± 0.57 | 945.92 ± 0.57
313.15 K, x1 = 0.0305 | 806.61 ± 0.62 | 810.57 ± 0.64 | 814.26 ± 0.66 | 817.73 ± 0.68 | 821.04 ± 0.7 | 824.24 ± 0.72 | 827.39 ± 0.74 | 830.53 ± 0.76
313.15 K, x1 = 0.0602 | 812.04 ± 0.61 | 816 ± 0.63 | 819.71 ± 0.65 | 823.21 ± 0.67 | 826.55 ± 0.69 | 829.77 ± 0.71 | 832.92 ± 0.73 | 836.03 ± 0.75
313.15 K, x1 = 0.1004 | 819.08 ± 0.61 | 823.09 ± 0.63 | 826.82 ± 0.65 | 830.32 ± 0.67 | 833.66 ± 0.69 | 836.89 ± 0.71 | 840.06 ± 0.73 | 843.25 ± 0.74
313.15 K, x1 = 0.2011 | 835.38 ± 0.6 | 839.35 ± 0.62 | 843.09 ± 0.64 | 846.64 ± 0.65 | 850.04 ± 0.67 | 853.32 ± 0.69 | 856.53 ± 0.7 | 859.71 ± 0.72
313.15 K, x1 = 0.2999 | 849.45 ± 0.6 | 853.38 ± 0.61 | 857.13 ± 0.63 | 860.71 ± 0.64 | 864.15 ± 0.65 | 867.48 ± 0.67 | 870.73 ± 0.68 | 873.91 ± 0.7
313.15 K, x1 = 0.4001 | 862.05 ± 0.59 | 866.03 ± 0.6 | 869.81 ± 0.61 | 873.43 ± 0.63 | 876.91 ± 0.64 | 880.27 ± 0.65 | 883.53 ± 0.66 | 886.72 ± 0.67
313.15 K, x1 = 0.4514 | 867.85 ± 0.58 | 871.88 ± 0.6 | 875.71 ± 0.61 | 879.36 ± 0.62 | 882.87 ± 0.63 | 886.24 ± 0.64 | 889.51 ± 0.65 | 892.71 ± 0.66
313.15 K, x1 = 0.498 | 872.93 ± 0.58 | 876.96 ± 0.59 | 880.8 ± 0.6 | 884.47 ± 0.61 | 888 ± 0.63 | 891.4 ± 0.64 | 894.7 ± 0.65 | 897.93 ± 0.66
313.15 K, x1 = 0.5495 | 878.17 ± 0.58 | 882.25 ± 0.59 | 886.12 ± 0.6 | 889.81 ± 0.61 | 893.35 ± 0.62 | 896.76 ± 0.63 | 900.07 ± 0.64 | 903.31 ± 0.64
313.15 K, x1 = 0.5984 | 882.9 ± 0.57 | 887.01 ± 0.58 | 890.9 ± 0.59 | 894.6 ± 0.6 | 898.15 ± 0.61 | 901.58 ± 0.62 | 904.91 ± 0.63 | 908.18 ± 0.64
313.15 K, x1 = 0.7004 | 892.03 ± 0.56 | 896.09 ± 0.57 | 900.01 ± 0.58 | 903.79 ± 0.59 | 907.43 ± 0.6 | 910.93 ± 0.6 | 914.29 ± 0.61 | 917.51 ± 0.62
313.15 K, x1 = 0.8001 | 900.15 ± 0.56 | 904.24 ± 0.56 | 908.18 ± 0.57 | 911.97 ± 0.58 | 915.62 ± 0.58 | 919.14 ± 0.59 | 922.52 ± 0.6 | 925.76 ± 0.6
313.15 K, x1 = 0.8995 | 907.42 ± 0.55 | 911.49 ± 0.56 | 915.45 ± 0.56 | 919.28 ± 0.57 | 922.99 ± 0.57 | 926.57 ± 0.58 | 930.03 ± 0.58 | 933.36 ± 0.59
313.15 K, x1 = 0.9328 | 909.62 ± 0.55 | 913.75 ± 0.55 | 917.76 ± 0.56 | 921.63 ± 0.56 | 925.35 ± 0.57 | 928.93 ± 0.57 | 932.36 ± 0.58 | 935.63 ± 0.58
313.15 K, x1 = 0.9616 | 911.53 ± 0.55 | 915.62 ± 0.55 | 919.61 ± 0.56 | 923.5 ± 0.56 | 927.26 ± 0.57 | 930.88 ± 0.57 | 934.33 ± 0.58 | 937.6 ± 0.58
